We go through 16 compounds from patent publication US20070099927A1, “Aminoalkyl-pyrazinones and-pyridones as thrombin inhibitors” (priority 2003, published 2007).

For the experiment, the target named is thrombin (Homo sapiens, UniProt P00734). Briefly: Ki determinations thrombin, fluorogenic substrate Tosyl-GPR-AMC. The experiment is classed as biochemical. The following applies: 20° C., thrombin 100 pM, Tosyl-GPR-AMC 20 μM, HBS pH 7.4; Ki class. As for the experimental part:
The Ki determinations were carried out at 20° C. with the fluorogenic substrate Tosyl-GPR-AMC (Bachem, Heidelberg, Germany; λexc=370 nm, λem=450 nm) at a thrombin concentration of 100 pM in HBS pH 7.4. The substrate was added to a final concentration of 20 μM in a total assay volume of 100 μl. The enzymatic reaction was started by addition of substrate. The emission at 450 nm was monitored in 1 minute intervals for 10 minutes using a polarstar reader (BMG Laboratories, Offenburg, Germany). Initial velocities of the control and the inhibited reactions (vo and vi) were estimated in FU/min at different compound concentrations. The inhibition constants were calculated using the Michaelis-Menten equation for competitive inhibition.

As to `Cc1cnc(NCC(F)(F)C2CCCCN2)c(=O)n1CCNCc1n[nH]c2ccc(Cl)cc12` (single isomer, unassigned) [85 (E1)], the Ki was less than 0.005 µM.
The result for `Cc1cnc(NCCC2CCCCN2C)c(=O)n1CCNCc1n[nH]c2ccc(Cl)cc12` (single isomer, unassigned) [95 (E1), 1-{2-[(5-Chloro-1H-indazol-3-ylmethyl)-amino]-ethyl}-6-methyl-3-[2-(1-methyl-piperidin-2-yl)-ethylamino]-1H-pyrazin-2-one] reads less than 0.005 µM; that for `Cc1cnc(NCCC2CCCCN2C)c(=O)n1CCNCc1n[nH]c2ccc(Cl)cc12` (single isomer, unassigned) [95 (E2), 1-{2-[(5-Chloro-1H-indazol-3-ylmethyl)-amino]-ethyl}-6-methyl-3-[2-(1-methyl-piperidin-2-yl)-ethylamino]-1H-pyrazin-2-one], less than 0.005 µM; that for `O=c1c(NCCC2CCCCN2)ncc(Cl)n1CCNCc1n[nH]c2ccc(Cl)cc12` (single isomer, unassigned) [101 (E2), 6-Chloro-1-{2-[(5-chloro-1H-indazol-3-ylmethyl)-amino]-ethyl}-3-(2-piperidin-2-yl-ethylamino)-1H-pyrazin-2-one], less than 0.005 µM.
`Cc1nc(N)ccc1CNCCn1c(Cl)cnc(NCC(F)(F)c2ccccn2)c1=O` [Example 52] had a Ki of 0.03 to 0.2 µM.
The same measure for `Cc1cnc(NCCNc2ccccn2)c(=O)n1CCNCc1cccc(Cl)c1` [Example 56]: 0.03 to 0.2 µM; for `Cc1cnc(NC(Cc2ccccc2)C(N)=O)c(=O)n1CCNCCc1cccc(Cl)c1` (stereo not shown) [Example 59]: 0.03 to 0.2 µM.
With `O=c1c(NCC(F)(F)c2ccccn2)ncc(Cl)n1CCNCc1n[nH]c2ccc(Cl)cc12` [Example 74], the inhibition constant Ki was less than 0.005 µM.
`O=c1c(NCC(F)(F)c2cccc[n+]2[O-])ncc(Cl)n1CCNCc1n[nH]c2ccc(Cl)cc12` [Example 82] registered a Ki of less than 0.005 µM.
The same measure for `O=c1c(NCC(F)(F)c2cccc[n+]2[O-])ncc(Cl)n1CCNCCc1cccc(Cl)c1` [Example 83]: less than 0.005 µM.
`Cc1nc(N)ccc1CNCCn1c(Cl)cnc(NCC(F)(F)c2cccc[n+]2[O-])c1=O` [Example 84] yielded a Ki of 0.005 to 0.03 µM.
The same measure for `O=c1c(NCCc2ccccn2)ncc(Cl)n1CCNCc1n[nH]c2ccc(Cl)cc12` [Example 92]: less than 0.005 µM; for `NC(=O)CN1CCCCC1CCNc1ncc(Cl)n(CCNCc2n[nH]c3ccc(Cl)cc23)c1=O` (stereo not shown) [Example 96, 2-{2-[2-(5-Chloro-4-{2-[(5-chloro-1H-indazol-3-ylmethyl)amino]-ethyl}-3-oxo-3,4-dihydro-pyrazin-2-ylamino)-ethyl]-piperidin-1-yl}-acetamide]: 0.005 to 0.03 µM.
The result for `O=C(O)CN1CCCCC1CCNc1ncc(Cl)n(CCNCc2n[nH]c3ccc(Cl)cc23)c1=O` (stereo not shown) [Example 97, {2-[2-(5-Chloro-4-{2-[(5-chloro-1H-indazol-3-ylmethyl)-amino]-ethyl}-3-oxo-3,4-dihydro-pyrazin-2-ylamino)-ethyl]-piperidin-1-yl}acetic acid] reads less than 0.005 µM; that for `Cc1cnc(NCCc2ccccn2)c(=O)n1CCNCCc1nc2ccc(Cl)cc2[nH]1` [Example 99], 0.03 to 0.2 µM.
In turn, `Cc1cnc(NCCC2CCCCN2)c(=O)n1CCNCc1cccc(Cl)c1` (stereo not shown) [Example 102] yielded a Ki of 0.005 to 0.03 µM.

A word on the Ki: it is the dissociation constant of the complex between target and ligand, obtained from inhibition or displacement. Low readings indicate a stronger hold on the target, high ones a looser hold on the target.
